In the assay the target is human PAD4 (Homo sapiens (Human), UniProt Q9UM07). Nature of the assay: In Vitro PAD4 BAEE Biochemical Assay. The following applies: geometric mean of multiple experiments. In short, it runs like this: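 Recombinant human PAD4 (His-SUMO tag removed, E. coli-expressed), 5 nM, preincubated with compound and 2 mM CaCl2 30 min at 25 °C in MOPS pH 7.6 with DTT; 3 mM BAEE added for 2 h at 25 °C, EDTA stop. Released ammonia detected by o-phthalaldehyde/DTT fluorescence (ex 405, em 535 nm).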
human PAD4, sequence (Q9UM07 2-663): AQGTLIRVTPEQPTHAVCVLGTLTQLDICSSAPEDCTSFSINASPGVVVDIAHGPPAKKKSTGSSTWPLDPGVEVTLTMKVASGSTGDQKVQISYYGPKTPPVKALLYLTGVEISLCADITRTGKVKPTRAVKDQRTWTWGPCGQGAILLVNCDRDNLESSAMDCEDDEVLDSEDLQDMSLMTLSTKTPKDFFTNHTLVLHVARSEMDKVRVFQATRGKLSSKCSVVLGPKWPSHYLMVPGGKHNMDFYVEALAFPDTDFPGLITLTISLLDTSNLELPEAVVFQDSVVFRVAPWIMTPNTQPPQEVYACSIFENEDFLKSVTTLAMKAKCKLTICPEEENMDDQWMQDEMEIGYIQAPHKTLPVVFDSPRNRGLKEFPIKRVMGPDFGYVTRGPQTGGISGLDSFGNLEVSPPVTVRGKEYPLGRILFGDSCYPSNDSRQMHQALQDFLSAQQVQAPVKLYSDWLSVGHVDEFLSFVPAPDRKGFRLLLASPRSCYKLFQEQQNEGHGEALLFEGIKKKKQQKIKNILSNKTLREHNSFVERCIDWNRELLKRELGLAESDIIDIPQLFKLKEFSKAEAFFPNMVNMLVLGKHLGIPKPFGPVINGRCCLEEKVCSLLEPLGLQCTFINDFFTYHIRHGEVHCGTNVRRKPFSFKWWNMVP

The mark [1] stands for this setting: human PAD4, BAEE substrate, 5 nM PAD4, 2 mM calcium chloride, 3 mM BAEE.
[2] abbreviates: recombinant PAD4 5 nM, 2 mM calcium chloride, 3 mM BAEE substrate.

IC50 data for 19 compounds are collected here from patent publication US11878965B2, “Inhibitors of peptidylarginine deiminases” (Gilead Sciences, Inc., priority 2020, dated 2024).

Usually IC50 stands for the concentration that inhibits the measured activity by half. With `COc1cc(C(=O)N2[C@H]3CC[C@@H]2[C@H](N)C3)cc2nc(-c3cc4ccc([C@@H](C)NC(=O)C5(OC)CC5)cc4n3CC3CC3)n(C3CC3)c12` [Example 147, N-((R)-1-(2-(5-((1R,2R,4S)-2-amino-7-azabicyclo[2.2.1]heptane-7-carbonyl)-1-cyclopropyl-7-methoxy-1H-benzo[d]imidazol-2-yl)-1-(cyclopropylmethyl)-1H-indol-6-yl)ethyl)-1-methoxycyclopropane-1-carboxamide], under setting [1], the IC50 was 78.9 nM. The same measure, in the same setting: then `CCN(c1ccc2cc(-c3nc4cc(C(=O)N5CCC[C@@H](N)[C@H]5C)cc(OC)c4n3CC3COC3)n(CC3CC3)c2n1)S(C)(=O)=O` [Example 37, N-(2-(5-((2R,3R)-3-amino-2-methylpiperidine-1-carbonyl)-7-methoxy-1-(oxetan-3-ylmethyl)-1H-benzo[d]imidazol-2-yl)-1-(cyclopropylmethyl)-1H-pyrrolo [2,3-b]pyridin-6-yl)-N-ethylmethanesulfonamide], with 235 nM; and `COc1cc(C(=O)N2C[C@H](N)CC[C@@H]2C)cc2nc(-c3cc4ccc(-c5cccnc5-c5ccccc5)nc4n3CC3CC3)n(C)c12` [Example 283, ((2S,5R)-5-amino-2-methylpiperidin-1-yl)(2-(1-(cyclopropylmethyl)-6-(2-phenylpyridin-3-yl)-1H-pyrrolo[2,3-b]pyridin-2-yl)-7-methoxy-1-methyl-1H-benzo[d]imidazol-5-yl)methanone], with 320 nM. Still for that read-out and setting: then `COc1cc(C(=O)N2C[C@H](N)[C@@H]3CC[C@H]2C3)cc2nc(-c3cc4ccc([C@@H](C)NC(=O)C56CC(C(F)(F)F)(C5)C6)nc4n3CC3CC3)n(C)c12` [Example 230, N-((R)-1-(2-(5-((1S,4R,5R)-4-amino-2-azabicyclo[3.2.1]octane-2-carbonyl)-7-methoxy-1-methyl-1H-benzo[d]imidazol-2-yl)-1-(cyclopropylmethyl)-1H-pyrrolo[2,3-b]pyridin-6-yl)ethyl)-3-(trifluoromethyl)bicyclo[1.1.1] pentane-1-carboxamide], with 127 nM. Turning to `COc1cc(C(=O)N2C[C@H](N)[C@@H]3CC[C@H]2C3)cc2nc(-c3cc4ccc([C@@H](C)NC(=O)C(C)(C)F)nc4n3CC3CC3)n(C)c12` [Example 325, N-((R)-1-(2-(5-((1S,4R,5R)-4-amino-2-azabicyclo[3.2.1]octane-2-carbonyl)-7-methoxy-1-methyl-1H-benzo[d]imidazol-2-yl)-1-(cyclopropylmethyl)-1H-pyrrolo[2,3-b]pyridin-6-yl)ethyl)-2-fluoro-2-methylpropanamide], under setting [2], the IC50 was determined as 91.8 nM. For `COc1cc(C(=O)N2CC[C@@H](O)[C@@H](N)C2)cc2nc(-c3cc4ccc(N(C(F)F)S(C)(=O)=O)nc4n3CC3CC3)n(C)c12` [Example 51, N-(2-(5-((3S,4R)-3-amino-4-hydroxypiperidine-1-carbonyl)-7-methoxy-1-methyl-1H-benzo[d]imidazol-2-yl)-1-(cyclopropylmethyl)-1H-pyrrolo [2,3-b]pyridin-6-yl)-N-(difluoromethyl) methanesulfonamide], under setting [1], the concentration for half-maximal inhibition (IC50) is 141 nM.

With `COc1cc(C(=O)N2CCC[C@@H](N)C2)cc2nc(-c3cc4ccc([C@@H](C)NC(=O)C(C)(C)C)nc4n3CC3CC3)n(C3CC3)c12` [Example 128, N-((R)-1-(2-(5-((R)-3-aminopiperidine-1-carbonyl)-1-cyclopropyl-7-methoxy-1H-benzo[d]imidazol-2-yl)-1-(cyclopropylmethyl)-1H-pyrrolo[2,3-b]pyridin-6-yl)ethyl)pivalamide], the concentration for half-maximal inhibition (IC50) under setting [1] was determined as 61.5 nM. The same measure, in the same setting: then `COc1cc(C(=O)N2CCC[C@@H](N)C2)cc2nc(-c3cc4ccc(N(C(F)F)S(=O)(=O)C5CC5)nc4n3CC3CC3)n(C)c12` [Example 27, (R)-N-(2-(5-(3-aminopiperidine-1-carbonyl)-7-methoxy-1-methyl-1H-benzo[d]imidazol-2-yl)-1-(cyclopropylmethyl)-1H-pyrrolo [2,3-b]pyridin-6-yl)-N-(difluoromethyl) cyclopropanesulfonamide], with 92.7 nM.

As for `COc1cc(C(=O)N2C[C@H](N)[C@@H]3CC[C@H]2C3)cc2nc(-c3cc4ccc([C@@H](C)NC(=O)c5c(F)cccc5F)nc4n3CC3CC3)n(C)c12` [Example 295, N-((R)-1-(2-(5-((1S,4R,5R)-4-amino-2-azabicyclo[3.2.1]octane-2-carbonyl)-7-methoxy-1-methyl-1H-benzo[d]imidazol-2-yl)-1-(cyclopropylmethyl)-1H-pyrrolo[2,3-b]pyridin-6-yl)ethyl)-2,6-difluorobenzamide], the IC50 under setting [2] worked out at 65.5 nM. As for `CCN(c1ccc2cc(-c3nc4cc(C(=O)N5CCC[C@@H](N)[C@H]5C)cc(OC)c4n3CC3(C)CC3)n(CC3CC3)c2n1)S(C)(=O)=O` [Example 40, N-(2-(5-((2R,3R)-3-amino-2-methylpiperidine-1-carbonyl)-7-methoxy-1-((1-methylcyclopropyl)methyl)-1H-benzo[d]imidazol-2-yl)-1-(cyclopropylmethyl)-1H-pyrrolo [2,3-b]pyridin-6-yl)-N-ethylmethanesulfonamide], the IC50 under setting [1] is 329 nM. Still for that read-out and setting: then `COc1cc(C(=O)N[C@H]2CNC[C@@H]2NC(C)=O)cc2nc(-c3cc4ccc(N(C(F)F)S(C)(=O)=O)nc4n3CC3CC3)n(C)c12` [Example 70, N-((3S,4S)-4-acetamidopyrrolidin-3-yl)-2-(1-(cyclopropylmethyl)-6-((N-(difluoromethyl)methyl)sulfonamido)-1H-pyrrolo[2,3-b]pyridin-2-yl)-7-methoxy-1-methyl-1H-benzo[d]imidazole-5-carboxamide], with 39400 nM; and `CCN(C(C)=O)c1ccc2cc(-c3nc4cc(C(=O)N5CCC[C@@H](N)C5)cc(OC)c4n3C)n(CC3CC3)c2n1` [Example 115, (R)-N-(2-(5-(3-aminopiperidine-1-carbonyl)-7-methoxy-1-methyl-1H-benzo[d]imidazol-2-yl)-1-(cyclopropylmethyl)-1H-pyrrolo [2,3-b]pyridin-6-yl)-N-ethylacetamide], with 379 nM. Regarding `COc1cc(C(=O)N2C[C@H](N)[C@@H]3CC[C@H]2C3)cc2nc(-c3cc4ccc([C@@H](C)NC(=O)c5ccc(C(C)(C)O)nc5)nc4n3CC3CC3)n(C)c12` [Example 300, N-((R)-1-(2-(5-((1S,4R,5R)-4-amino-2-azabicyclo[3.2.1]octane-2-carbonyl)-7-methoxy-1-methyl-1H-benzo[d]imidazol-2-yl)-1-(cyclopropylmethyl)-1H-pyrrolo[2,3-b]pyridin-6-yl)ethyl)-6-(2-hydroxypropan-2-yl)nicotinamide], under setting [2], the concentration for half-maximal inhibition (IC50) is 72 nM. Still for that read-out and setting: then `COc1cc(C(=O)N2C[C@H](N)[C@@H]3CC[C@H]2C3)cc2nc(-c3cc4ccc([C@@H](C)NC(=O)c5cnc(C(F)(F)F)cn5)nc4n3CC3CC3)n(C)c12` [Example 318, N-((R)-1-(2-(5-((1S,4R,5R)-4-amino-2-azabicyclo[3.2.1]octane-2-carbonyl)-7-methoxy-1-methyl-1H-benzo[d]imidazol-2-yl)-1-(cyclopropylmethyl)-1H-pyrrolo[2,3-b]pyridin-6-yl)ethyl)-5-(trifluoromethyl)pyrazine-2-carboxamide], with 252 nM. Same read-out and setting: then `C[C@@H](NS(=O)(=O)C1CC1)c1ccc2cc(-c3nc4cc(C(=O)N5C[C@H](N)[C@@H]6CC[C@H]5C6)cc(F)c4n3C3CC3)n(CC3CC3)c2n1` [Example 232, N-((R)-1-(2-(5-((1S,4R,5R)-4-amino-2-azabicyclo[3.2.1]octane-2-carbonyl)-1-cyclopropyl-7-fluoro-1H-benzo[d]imidazol-2-yl)-1-(cyclopropyImethyl)-1H-pyrrolo[2,3-b]pyridin-6-yl)ethyl)cyclopropanesulfonamide], with 89.8 nM.

`COc1cc(C(=O)N2C[C@H](N)CCN2C)cc2nc(-c3cc4ccc([C@@H](C)NC(=O)C(C)(C)C)nc4n3CC3CC3)n(C)c12` [Example 161, N-((R)-1-(2-(5-((R)-5-amino-2-methylhexahydropyridazine-1-carbonyl)-7-methoxy-1-methyl-1H-benzo[d]imidazol-2-yl)-1-(cyclopropylmethyl)-1H-pyrrolo[2,3-b]pyridin-6-yl)ethyl)pivalamide]: the half-maximal inhibitory concentration (IC50) under setting [1] was 72.3 nM. Take `C[C@@H](NC(=O)c1ccc(C(F)F)nc1)c1ccc2cc(-c3nc4cc(C(=O)N5C[C@H](N)[C@@H]6CC[C@H]5C6)cc(F)c4n3C3CC3)n(CC3CC3)c2n1` [Example 310, N-((R)-1-(2-(5-((1S,4R,5R)-4-amino-2-azabicyclo[3.2.1]octane-2-carbonyl)-1-cyclopropyl-7-fluoro-1H-benzo[d]imidazol-2-yl)-1-(cyclopropylmethyl)-1H-pyrrolo[2,3-b]pyridin-6-yl)ethyl)-6-(difluoromethyl)nicotinamide]: the IC50 under setting [2] was 89.7 nM. As for `COc1cc(C(=O)N2C[C@H](N)CCN2C)cc2nc(-c3cc4ccc([C@@H](C)NC(=O)c5cnn(C)c5)nc4n3CC3CC3)n(C)c12` [Example 169, N-((R)-1-(2-(5-((R)-5-amino-2-methylhexahydropyridazine-1-carbonyl)-7-methoxy-1-methyl-1H-benzo[d]imidazol-2-yl)-1-(cyclopropylmethyl)-1H-pyrrolo[2,3-b]pyridin-6-yl)ethyl)-1-methyl-1H-pyrazole-4-carboxamide], the half-maximal inhibitory concentration (IC50) under setting [1] stood at 47.8 nM. Still for that read-out and setting: then `COc1cc(C(=O)N2[C@H]3CC[C@@H]2[C@H](N)C3)cc2nc(-c3cc4ccc([C@@H](C)NC(=O)C56CC(F)(C5)C6)nc4n3CC3CC3)n(C3CC3)c12` [Example 130, N-((R)-1-(2-(5-((1R,2R,4S)-2-amino-7-azabicyclo[2.2.1]heptane-7-carbonyl)-1-cyclopropyl-7-methoxy-1H-benzo[d]imidazol-2-yl)-1-(cyclopropylmethyl)-1H-pyrrolo[2,3-b]pyridin-6-yl)ethyl)-3-fluorobicyclo[1.1.1]pentane-1-carboxamide], with 45.1 nM.
